Values of other authors, collected in patent US12630504B2, “Phenethylamine derivatives, compositions, and methods of use” (CYBIN IRL LIMITED, priority 2020, dated 2026).

Structure (SMILES) | biological activity (due to extensive first-pass metabolism) | oral dose at which orally active (oral, only at high doses owing to low brain bioavailability)
NCCc1ccc2c(c1)OCO2 [MDPEA, 3,4-methylenedioxyphenethylamine] | biologically inactive | 
COc1cc(CCN)cc(OC)c1OC [Mescaline, 3,4,5-trimethoxyphenethylamine] |  | ~300 mg
